In paper PMC6941823, “A dispensable paralog of succinate dehydrogenase subunit C mediates standing resistance towards a subclass of SDHI fungicides in Zymoseptoria tritici” (PLoS Pathogens, 2019):

Key:
[1] = biological target: altC-SQR (altC) of D024 SDHC1 KO mitochondria (Zymoseptoria tritici, UniProt A0A1X7RQW2+F9X9V6+O42772); experiment: Succinate-quinone (SQR) SDHI sensitivity assay on purified mitochondria, 06STD024 SDHC1 KO; type: biochemical; conditions: for RF (resistance factor), D024 SDHC1 KO (altC): IC50 ratio compared to IPO323 values
Chain of altC-SQR (altC) of D024 SDHC1 KO mitochondria (A0A1X7RQW2 36-181): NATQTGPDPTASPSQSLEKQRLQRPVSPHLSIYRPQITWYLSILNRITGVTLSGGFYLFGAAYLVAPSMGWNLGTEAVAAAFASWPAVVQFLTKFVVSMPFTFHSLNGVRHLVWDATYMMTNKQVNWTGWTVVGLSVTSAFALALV
Chain of altC-SQR (altC) of D024 SDHC1 KO mitochondria (O42772 20-297): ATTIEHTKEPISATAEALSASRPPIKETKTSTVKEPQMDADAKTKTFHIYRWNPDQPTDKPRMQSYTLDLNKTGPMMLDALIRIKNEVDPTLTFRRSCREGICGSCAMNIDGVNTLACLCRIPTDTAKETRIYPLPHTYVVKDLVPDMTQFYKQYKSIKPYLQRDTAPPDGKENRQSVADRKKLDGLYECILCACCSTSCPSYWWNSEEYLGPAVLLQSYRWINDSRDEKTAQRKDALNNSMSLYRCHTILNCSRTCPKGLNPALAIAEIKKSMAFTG
Chain of altC-SQR (altC) of D024 SDHC1 KO mitochondria (F9X9V6 1-193): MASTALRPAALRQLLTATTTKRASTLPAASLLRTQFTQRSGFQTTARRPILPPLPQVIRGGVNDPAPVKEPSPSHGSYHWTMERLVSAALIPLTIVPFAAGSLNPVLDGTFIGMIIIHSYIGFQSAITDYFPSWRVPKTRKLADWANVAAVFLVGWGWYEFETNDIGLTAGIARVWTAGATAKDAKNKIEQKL
Chain of altC-SQR (altC) of D024 SDHC1 KO mitochondria (F9WWR1 41-643 partner): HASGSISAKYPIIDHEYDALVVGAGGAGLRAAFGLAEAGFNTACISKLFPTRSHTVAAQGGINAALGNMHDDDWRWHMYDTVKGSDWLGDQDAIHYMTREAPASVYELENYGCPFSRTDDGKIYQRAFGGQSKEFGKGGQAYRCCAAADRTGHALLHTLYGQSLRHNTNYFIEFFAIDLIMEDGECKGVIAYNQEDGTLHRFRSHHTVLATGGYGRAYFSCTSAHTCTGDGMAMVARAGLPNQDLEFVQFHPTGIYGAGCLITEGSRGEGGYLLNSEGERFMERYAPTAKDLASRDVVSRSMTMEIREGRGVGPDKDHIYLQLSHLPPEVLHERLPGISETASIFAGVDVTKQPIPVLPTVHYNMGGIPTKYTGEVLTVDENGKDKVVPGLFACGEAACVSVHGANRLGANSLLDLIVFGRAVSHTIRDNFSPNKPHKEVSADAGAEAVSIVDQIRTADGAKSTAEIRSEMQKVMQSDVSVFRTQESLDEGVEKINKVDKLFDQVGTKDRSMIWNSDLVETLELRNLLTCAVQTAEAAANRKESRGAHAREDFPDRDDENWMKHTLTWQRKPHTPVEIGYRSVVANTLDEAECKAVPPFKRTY
Outline: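 Succinate:ubiquinone/DCPIP reductase inhibition measured on purified mitochondria from Zymoseptoria tritici strains carrying either a single C-subunit gene (ZtSDHC1, ZtSDHC1_A84I or ZtSDHC3) or both ZtSDHC1 and ZtSDHC3; pTet::SDHC3 transformant tested under repressed and induced conditions.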

[2] = system: Zymoseptoria tritici on wheat variety Riband; experiment: In planta fungicide dose response; type: in vivo; conditions: for In planta EC50: application one day before infection
Protocol: The influence of the ZtSDHC3-driven SHA-SDHI resistance for the control of Z. tritici during wheat infection was assessed with a small range of commercial SDHIs (Fig 4C and 4D). In planta SDHIs sensitivity assays were performed with the 06STD024 isolate and its ZtSDHC1 or ZtSDHC3 KO mutants. A control strain (705) devoid of the ZtSDHC3 gene but more aggressive than IPO323 on wheat variety Riband was also included for comparison (Fig 4C and 4D).
Wheat (Triticum aestivum) variety Riband was grown in pots (d = 6.5cm), at a density of 4 plants per pot and treated with the growth regulator CCC (Chlorcholinchlorid; Chlormequat; 5 ml / pot, 0.4% solution) 4 days after sowing. Wheat plantlets were maintained in a climatic room at 18°C, 60% humidity and under a 12h light regime (high intensity). Fungicide applications were performed on 14 days old plantlets for which leaf 2 is the fully expanded target leaf. Fungicide treatments were performed using a custom-made track sprayer adjusted at 200L.ha^-1 (Nozzle: Lechler, orange LU90-01). […] Z. tritici infections were performed using a Devilbis airbrush (spray of about 150ml.m^-2) one day after fungicide application and using an inoculum grown on V8-agar adjusted to 1.8.10^6 spores.ml^-1 in 0.05% Tween20 in MQ water. Inoculated plants were initially incubated for 72h under reduced light conditions and high humidity using towel-covered Plexiglas hoods in a climatic chamber set to 21°C/19°C day/night alternations, 80% humidity and a 14h light regime. The Plexiglas hoods were then removed until evaluation. Plants were fertilized once per week and disease evaluation performed based on disease coverage on the second leaf approximately 16–19 days after infection, once untreated plants reached 75–90% disease coverage. Each fungicide was tested at several rates to produce dose responses. There were 3 pots (4 plants each) per fungicide rate and isolate, the whole experiment was repeated 4 times. In planta EC50 were calculated using the software GraphPad Prism v6.08.

CON(C(=O)c1cn(C)nc1C(F)F)[C@@H](C)Cc1c(Cl)cc(Cl)cc1Cl [Pydiflumetofen]
RF (resistance factor), D024 SDHC1 KO (altC) [1]: 4.9
RF (resistance factor), D024 SDHC1 KO (altC) ([1]; listed as pydiflumetofen): 6
IC50 ([1]; mitochondria of 06STD024 ZtSDHC1 deletion mutant (pure altC-SQR), mean of three ± SD): 1.5 ± 0.4 nM
In planta EC50 ([2]; 06STD024 ZtSDHC1 KO on wheat Riband): 2.85 g.ha^-1
In planta EC50 ([2]; 06STD024 ZtSDHC3 KO mutant on wheat Riband): 0.053 g.ha^-1
In planta EC50 ([2]; WT isolate 06STD024 on wheat Riband): 1.31 g.ha^-1
In planta sensitivity difference compared to the ZtSDHC3 KO mutant ([2]; WT isolate 06STD024 vs 06STD024 ZtSDHC3 KO): 25 fold
